Reference: US7192763B2, “Streptomyces anulatus microorganism and a process for producing the substance GM-95” (Sosei Co., Ltd., priority 2001, dated 2007)

Columns and labels:
[1] = test system: OVCAR-3 (human ovarian cancer); test: Tumor cell growth inhibition (crystal violet), OVCAR-3; assay type: cell-based; details: 72 hours, read-out: Concentrations for 50% growth inhibition of various tumor cells (IC50)
Experimental: (§1) Tumor cells described in Table 5 were suspended in RPMI1640 medium containing 10% fetal calf serum, plated into culture plates (38 mm) at the density of in 2×10^3 cells each, and cultured in 37° C., 5% CO2 incubator overnight. Subsequently, experimental agents (the compound of the invention and 5-fluorouracil) diluted to various concentrations using RPMI1640 medium containing 10% fetal calf serum were added to each plate, and further cultured for 72 hours. After the cell culture was completed, those cells were fixed with 25% glutalaldehyde for 15 minutes and washed with water three times. After that, the cells were stained with 0.05% crystal violet diluted in 20% methanol aqueous solution, washed with water three times and then dried. The crystal violet were extracted with 100 μl of 0.05M sodium dihydrogenphosphate/ethanol (1/1(v/v)), their absorbance at 540 nm were determined by an automatic spectroscope. “IC50” was defined as the concentration required for a 50% reduction in growth compared to the control absorbance.

[2] = test system: PC-3 (human prostate cancer); test: Tumor cell growth inhibition (crystal violet), PC-3; assay type: cell-based; details: 72 hours, read-out: Concentrations for 50% growth inhibition of various tumor cells (IC50)
Experimental: as §1

[3] = test system: SKOV-3 (human ovarian cancer); test: Tumor cell growth inhibition (crystal violet), SKOV-3; assay type: cell-based; details: SK-OV-3, 72 hours, read-out: Concentrations for 50% growth inhibition of various tumor cells (IC50)
Experimental: as §1

[4] = test system: MCF-7 (human breast cancer); test: Tumor cell growth inhibition (crystal violet), MCF-7; assay type: cell-based; details: MCF7, 72 hours, read-out: Concentrations for 50% growth inhibition of various tumor cells (IC50)
Experimental: as §1

[5] = test system: ZR75-1 (human breast cancer); test: Tumor cell growth inhibition (crystal violet), ZR75-1; assay type: cell-based; details: ZR-75-1, 72 hours, read-out: Concentrations for 50% growth inhibition of various tumor cells (IC50)
Experimental: as §1

[6] = test system: PAN-3 (human pancreatic cancer); test: Tumor cell growth inhibition (crystal violet), PAN-3; assay type: cell-based; details: 72 hours, read-out: Concentrations for 50% growth inhibition of various tumor cells (IC50)
Experimental: as §1

[7] = test system: KM12C-SM (human colon cancer); test: Tumor cell growth inhibition (crystal violet), KM12C-SM; assay type: cell-based; details: 72 hours, read-out: Concentrations for 50% growth inhibition of various tumor cells (IC50)
Experimental: as §1

A375SM (human melanoma) = test: Tumor cell growth inhibition (crystal violet), A375SM; assay type: cell-based; details: A375-SM, 72 hours, read-out: Concentrations for 50% growth inhibition of various tumor cells (IC50)
Experimental: as §1

[8] = test system: TMK-1 (human gastric cancer); test: Tumor cell growth inhibition (crystal violet), TMK-1; assay type: cell-based; details: 72 hours, read-out: Concentrations for 50% growth inhibition of various tumor cells (IC50)
Experimental: as §1

[9] = test system: HT-29 (human colon cancer); test: Tumor cell growth inhibition (crystal violet), HT-29; assay type: cell-based; details: 72 hours, read-out: Concentrations for 50% growth inhibition of various tumor cells (IC50)
Experimental: as §1

[10] = test system: DLD-1 (human colon cancer); test: Tumor cell growth inhibition (crystal violet), DLD-1; assay type: cell-based; details: 72 hours, read-out: Concentrations for 50% growth inhibition of various tumor cells (IC50)
Experimental: as §1

[11] = test system: Renca (mouse renal cancer); test: Tumor cell growth inhibition (crystal violet), Renca; assay type: cell-based; details: 72 hours, read-out: Concentrations for 50% growth inhibition of various tumor cells (IC50)
Experimental: as §1

telomerase = target: T1, telomerase (Homo sapiens, UniProt O14746); test: Telomerase-inhibiting activity using cell extracts containing telomerase; assay type: biochemical; details: read-out: concentration for inhibiting telomerase activity by 50% (IC50) in cell extracts
T1 construct: using cell extracts containing telomerase according to the conventional manner; endogenous in cells
T1 sequence (O14746 whole entry): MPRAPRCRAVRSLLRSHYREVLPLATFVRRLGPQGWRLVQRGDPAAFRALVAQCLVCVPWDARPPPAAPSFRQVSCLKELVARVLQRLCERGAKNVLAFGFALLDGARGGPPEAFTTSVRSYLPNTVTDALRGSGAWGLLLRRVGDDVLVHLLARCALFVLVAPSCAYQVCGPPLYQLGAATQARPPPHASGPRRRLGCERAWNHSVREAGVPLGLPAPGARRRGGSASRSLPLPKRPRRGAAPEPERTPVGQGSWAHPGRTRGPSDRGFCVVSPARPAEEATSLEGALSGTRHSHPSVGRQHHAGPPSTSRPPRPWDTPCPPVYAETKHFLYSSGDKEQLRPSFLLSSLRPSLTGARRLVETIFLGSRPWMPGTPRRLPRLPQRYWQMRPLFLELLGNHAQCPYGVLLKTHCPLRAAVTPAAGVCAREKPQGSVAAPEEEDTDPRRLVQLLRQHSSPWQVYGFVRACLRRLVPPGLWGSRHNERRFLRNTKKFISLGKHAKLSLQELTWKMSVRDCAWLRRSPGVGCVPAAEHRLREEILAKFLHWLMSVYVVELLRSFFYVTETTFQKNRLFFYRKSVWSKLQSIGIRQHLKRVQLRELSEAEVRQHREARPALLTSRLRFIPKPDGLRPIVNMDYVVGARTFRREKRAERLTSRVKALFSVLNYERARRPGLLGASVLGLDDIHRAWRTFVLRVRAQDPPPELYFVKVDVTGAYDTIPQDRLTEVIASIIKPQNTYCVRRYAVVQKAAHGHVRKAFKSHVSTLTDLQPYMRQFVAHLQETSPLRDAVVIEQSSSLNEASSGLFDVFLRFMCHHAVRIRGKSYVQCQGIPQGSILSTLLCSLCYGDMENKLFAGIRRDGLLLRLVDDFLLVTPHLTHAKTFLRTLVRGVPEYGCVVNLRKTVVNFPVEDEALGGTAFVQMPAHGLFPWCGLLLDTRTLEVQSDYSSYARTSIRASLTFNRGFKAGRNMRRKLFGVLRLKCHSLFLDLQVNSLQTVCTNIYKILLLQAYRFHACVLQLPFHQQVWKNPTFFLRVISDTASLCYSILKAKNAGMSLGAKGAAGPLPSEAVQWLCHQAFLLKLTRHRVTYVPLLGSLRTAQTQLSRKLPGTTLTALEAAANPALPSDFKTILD
Description: The compound of the invention was subjected to the examination of telomerase-inhibiting activity using cell extracts containing telomerase according to the conventional manner, to provide the concentration for inhibiting telomerase activity by 50% (IC50) in cell extracts.

Solubilities in solvents = assay type: physicochemical
Description: Insoluble in water and in acetone.
Soluble in a mixture of chloroform:methanol=1:1 • 8) Color of the substance: white yellowish powders • 9) Nuclear magnetic resonance spectrum

| IC50 [1] [µM] | IC50 [2] [µM] | IC50 [3] [µM] | IC50 [4] [µM] | IC50 [5] [µM] | IC50 [6] [µM] | IC50 [7] [µM] | IC50 (A375SM (human melanoma)) [µM] | IC50 [8] [µM] | IC50 [9] [µM] | IC50 [10] [µM] | IC50 [11] [µM] | IC50 (telomerase) [µM] | Solubility in acetone (Solubilities in solvents; acetone) | Solubility in a mixture of chloroform:methanol=1:1 (Solubilities in solvents; chloroform:methanol=1:1) | Solubility in water (Solubilities in solvents; water) | SMILES |
| --- | --- | --- | --- | --- | --- | --- | --- | --- | --- | --- | --- | --- | --- | --- | --- | --- |
| 0.37 | 5.7 | 7.84 | 1.12 | 3.63 | 8.82 | 1.32 | 2.89 | 0.33 | 2.1 | 5.5 | 0.58 | – | – | – | – | O=c1[nH]cc(F)c(=O)[nH]1 [5-fluorouracil, reference compound] |
| 3.41 | 8.82 | 3.73 | 7.73 | 4.04 | 7.09 | 3.74 | 7.04 | 3.75 | 7.1 | 6.2 | 0.97 | 0.05 | Insoluble | Soluble | Insoluble | Cc1oc2nc1-c1nc(co1)-c1nc(co1)-c1nc(co1)-c1nc(co1)-c1nc(co1)C1=NC(CS1)c1nc-2c(C)o1 (stereo not shown) [Substance GM-95] |
